Assays:
Fms kinase = Fms kinase (Homo sapiens, UniProt P07333); assay: Fms kinase biochemical activity assay (AlphaScreen, biotin-(E4Y)10 phosphorylation); settings: 100 μM ATP; read-out: Biochemical Inhibition IC50 Fms
In short: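 AlphaScreen read-out (PY20 acceptor, streptavidin donor beads, EDTA stop) of biotin-(E4Y)10 phosphorylation, with IC50 taken from the concentration–signal curve. Reaction: 30 nM substrate, 100 μM ATP, 1 ng/well Fms, Hepes pH 7.5 with Mg2+/Mn2+, 5% DMSO, 20 min at 30 °C.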

[1] = Relative solubility by turbidity in aqueous buffers (pH 1.5, 4.5, 6.8, 7.4); type: physicochemical; settings: for turbidity threshold (L, M, H) 1.4: pH 1.5 (SGF); for turbidity threshold (L, M, H) 4.5: pH 4.5 (SIF); for turbidity threshold (L, M, H) 6.8: pH 6.8 (SIF); for turbidity threshold (L, M, H) 7.4: pH 7.4 (HEPES)
In short: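 Reported value: concentration at which optical density at 490, 535 and 650 nm passes 0.01, taken as the mean of the three wavelengths. Buffers were 0.5M NaCl pH 1.5, 0.05M NaH2PO4 pH 4.5 or 6.8, and 10 mM HEPES/150 mM NaCl pH 7.4, each receiving serial 1:1 DMSO dilutions of a 25 mM stock.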

CYP1A2 = molecular target: T1, CYP1A2 (Homo sapiens, UniProt P05177); assay: CYP1A2 inhibition (fluorescent substrate CEC); type: in vitro ADME; settings: read-out: Cyp IC50 1A2
T1 sequence (P05177 1-516): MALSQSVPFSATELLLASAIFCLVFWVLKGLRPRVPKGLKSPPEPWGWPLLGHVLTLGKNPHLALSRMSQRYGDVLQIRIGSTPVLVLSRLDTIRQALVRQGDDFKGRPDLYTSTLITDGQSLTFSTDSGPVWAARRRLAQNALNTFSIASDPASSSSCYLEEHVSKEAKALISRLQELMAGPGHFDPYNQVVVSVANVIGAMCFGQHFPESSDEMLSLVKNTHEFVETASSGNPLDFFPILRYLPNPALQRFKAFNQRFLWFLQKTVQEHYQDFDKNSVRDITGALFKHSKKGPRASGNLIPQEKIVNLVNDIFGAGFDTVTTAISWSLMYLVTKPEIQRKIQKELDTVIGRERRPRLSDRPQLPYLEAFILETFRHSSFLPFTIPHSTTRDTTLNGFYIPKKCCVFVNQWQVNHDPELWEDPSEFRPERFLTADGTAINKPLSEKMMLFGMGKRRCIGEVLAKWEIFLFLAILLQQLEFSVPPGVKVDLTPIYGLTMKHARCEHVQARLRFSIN
In short: (§1)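 10-pt 1:1 dilution series (from 100 mM DMSO stock) in NADPH regen cofactor mix, 5% MeCN; 10 min preincubation at 37 °C. Enzyme reaction 37 °C: 1A2 15 min, 2C9 45 min, 2C19/2D6 30 min. Fluorescence readout; IC50 fit.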

CYP2D6 = CYP2D6 (Homo sapiens, UniProt P10635); assay: CYP2D6 inhibition (fluorescent substrate AMMC); type: in vitro ADME; settings: read-out: Cyp IC50 2D6
In short: as §1

CYP3A4(BQ) = CYP3A4(BQ) (Homo sapiens, UniProt P08684); assay: CYP3A4(BQ) inhibition; type: in vitro ADME; settings: CYP3A4, substrate BQ; read-out: Cyp IC50 3A4(BQ)
In short: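 After 30 min incubation at 37° C, plates were read on a Tecan Safire 2 at 409 ex/460 em, and IC50 values came from signal plotted against compound concentration. Enzyme and substrate were sourced from BD Biosciences. The cofactor mix held 1.3% NADPH Regeneration system Solution A, 1.04% Solution B, 5% acetonitrile and 0.05% DMSO.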

Sequence of CYP2D6 (P10635 whole entry): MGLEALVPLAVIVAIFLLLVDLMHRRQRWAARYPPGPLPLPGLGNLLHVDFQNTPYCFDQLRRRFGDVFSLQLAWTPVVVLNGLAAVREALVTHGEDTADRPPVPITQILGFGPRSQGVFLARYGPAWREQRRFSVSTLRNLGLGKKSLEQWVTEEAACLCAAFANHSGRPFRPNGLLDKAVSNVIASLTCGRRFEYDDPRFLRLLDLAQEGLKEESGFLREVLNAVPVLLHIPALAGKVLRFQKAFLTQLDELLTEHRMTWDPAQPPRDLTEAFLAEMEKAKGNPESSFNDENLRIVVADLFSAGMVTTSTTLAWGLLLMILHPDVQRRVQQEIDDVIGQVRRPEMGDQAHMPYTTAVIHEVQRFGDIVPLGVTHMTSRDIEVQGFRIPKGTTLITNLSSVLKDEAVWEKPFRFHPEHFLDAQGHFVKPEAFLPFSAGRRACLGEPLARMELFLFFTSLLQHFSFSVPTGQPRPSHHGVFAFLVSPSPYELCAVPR
Sequence of CYP3A4(BQ) (P08684 whole entry): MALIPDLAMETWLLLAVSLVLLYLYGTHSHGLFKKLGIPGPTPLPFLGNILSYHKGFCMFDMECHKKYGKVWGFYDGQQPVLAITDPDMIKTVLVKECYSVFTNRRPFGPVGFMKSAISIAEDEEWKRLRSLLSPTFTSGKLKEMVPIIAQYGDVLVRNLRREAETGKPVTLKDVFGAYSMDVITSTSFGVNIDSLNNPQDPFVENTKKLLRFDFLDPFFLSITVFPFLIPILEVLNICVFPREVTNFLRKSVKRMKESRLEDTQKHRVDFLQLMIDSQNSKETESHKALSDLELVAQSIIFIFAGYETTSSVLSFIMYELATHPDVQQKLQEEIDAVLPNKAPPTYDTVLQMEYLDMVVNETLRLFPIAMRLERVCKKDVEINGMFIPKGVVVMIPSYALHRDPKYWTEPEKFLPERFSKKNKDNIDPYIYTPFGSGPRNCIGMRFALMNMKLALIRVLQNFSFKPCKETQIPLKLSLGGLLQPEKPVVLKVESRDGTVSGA
Sequence of Fms kinase (P07333 20-972): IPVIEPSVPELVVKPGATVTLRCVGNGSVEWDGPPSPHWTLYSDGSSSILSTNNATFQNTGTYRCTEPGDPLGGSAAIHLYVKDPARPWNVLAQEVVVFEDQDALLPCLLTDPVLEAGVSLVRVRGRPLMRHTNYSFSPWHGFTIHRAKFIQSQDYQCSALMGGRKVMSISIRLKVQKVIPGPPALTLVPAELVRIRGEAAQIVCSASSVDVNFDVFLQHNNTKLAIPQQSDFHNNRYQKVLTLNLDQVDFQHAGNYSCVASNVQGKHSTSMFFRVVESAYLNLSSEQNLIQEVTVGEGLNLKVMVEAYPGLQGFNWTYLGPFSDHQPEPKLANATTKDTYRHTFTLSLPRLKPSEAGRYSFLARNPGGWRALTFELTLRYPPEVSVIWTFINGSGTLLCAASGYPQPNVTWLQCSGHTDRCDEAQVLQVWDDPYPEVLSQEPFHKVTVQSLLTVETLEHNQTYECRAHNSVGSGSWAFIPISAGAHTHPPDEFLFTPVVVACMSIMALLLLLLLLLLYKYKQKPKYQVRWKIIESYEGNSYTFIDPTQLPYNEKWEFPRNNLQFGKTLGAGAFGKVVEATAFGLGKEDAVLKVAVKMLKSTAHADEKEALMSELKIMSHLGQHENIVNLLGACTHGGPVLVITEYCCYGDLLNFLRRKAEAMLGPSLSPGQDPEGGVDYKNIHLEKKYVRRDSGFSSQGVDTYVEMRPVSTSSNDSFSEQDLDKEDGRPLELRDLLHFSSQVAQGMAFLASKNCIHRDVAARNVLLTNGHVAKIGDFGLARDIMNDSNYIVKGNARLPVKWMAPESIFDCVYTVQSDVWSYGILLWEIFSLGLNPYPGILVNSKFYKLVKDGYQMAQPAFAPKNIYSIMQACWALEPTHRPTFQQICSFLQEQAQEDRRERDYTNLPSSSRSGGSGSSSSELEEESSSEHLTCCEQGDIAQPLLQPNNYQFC

Compound | IC50 (Fms kinase) [nM] | turbidity threshold (L, M, H) 1.4 [1] | turbidity threshold (L, M, H) 4.5 [1] | turbidity threshold (L, M, H) 6.8 [1] | turbidity threshold (L, M, H) 7.4 [1] | IC50 (CYP1A2) [µM] | IC50 (CYP2D6) [µM] | IC50 (CYP3A4(BQ)) [µM]
CCCNc1ncnc2[nH]cc(C(=O)c3ccc(Nc4ccc(CC)nc4)nc3F)c12 [Compound P-4122, [6-[(6-ethyl-3-pyridyl)amino]-2-fluoro-3-pyridyl]-[4-(propylamino)-7H-pyrrolo[2,3-d]pyrimidin-5-yl]methanone] | < 10 | H (high solubility if the threshold concentration is >250 μm) | L (low solubility if the threshold concentration is <31.3 μM) | M (moderate solubility if the threshold concentration is 31.3 μM to 250 μM) | L (low solubility if the threshold concentration is <31.3 μM) | > 10 | > 10 | > 10
CCNc1ncnc2[nH]cc(C(=O)c3ccc(Nc4ccc(CC)nc4)nc3F)c12 [Compound P-4123, [4-(ethylamino)-7H-pyrrolo[2,3-d]pyrimidin-5-yl]-[6-[(6-ethyl-3-pyridyl)amino]-2-fluoro-3-pyridyl]methanone] | < 10 | H (high solubility if the threshold concentration is >250 μm) | L (low solubility if the threshold concentration is <31.3 μM) | L (low solubility if the threshold concentration is <31.3 μM) | L (low solubility if the threshold concentration is <31.3 μM) | > 10 | > 10 | > 10
CCc1ccc(Nc2ccc(C(=O)c3c[nH]c4ncnc(NC)c34)c(F)n2)cn1 [Compound P-4124, [6-[(6-ethyl-3-pyridyl)amino]-2-fluoro-3-pyridyl]-[4-(methylamino)-7H-pyrrolo[2,3-d]pyrimidin-5-yl]methanone] | < 10 | M (moderate solubility if the threshold concentration is 31.3 μM to 250 μM) | L (low solubility if the threshold concentration is <31.3 μM) | L (low solubility if the threshold concentration is <31.3 μM) | M (moderate solubility if the threshold concentration is 31.3 μM to 250 μM) | < 5 | < 5 | > 10
CCc1ccc(Nc2ccc(C(=O)c3c[nH]c4ncnc(NC5CC5)c34)c(F)n2)cn1 [Compound P-4125, [4-(cyclopropylamino)-7H-pyrrolo[2,3-d]pyrimidin-5-yl]-[6-[(6-ethyl-3-pyridyl)amino]-2-fluoro-3-pyridyl]methanone] | < 100 | H (high solubility if the threshold concentration is >250 μm) | L (low solubility if the threshold concentration is <31.3 μM) | L (low solubility if the threshold concentration is <31.3 μM) | L (low solubility if the threshold concentration is <31.3 μM) | > 10 | > 5 | > 10
Fc1cc(Cc2c[nH]c3ncnc(NC4CC4)c23)cnc1NC1CCC(F)(F)CC1 [Compound P-4127, N-cyclopropyl-5-[[6-[(4,4-difluorocyclohexyl)amino]-5-fluoro-3-pyridyl]methyl]-7H-pyrrolo[2,3-d]pyrimidin-4-amine] | < 100 | H (high solubility if the threshold concentration is >250 μm) | M (moderate solubility if the threshold concentration is 31.3 μM to 250 μM) | M (moderate solubility if the threshold concentration is 31.3 μM to 250 μM) | M (moderate solubility if the threshold concentration is 31.3 μM to 250 μM) | > 10 | > 10 | < 5

Source: patent publication US8901118B2, “Compounds and methods for kinase modulation, and indications therefor” (Plexxikon Inc., priority 2010, dated 2014)
